One assay concerns PAO1. Kind of assay: Mouse septicemia model, survival. The format is in vivo. The settings on record: 1 mg/kg IP at 0.5 h, 4 h and 8 h post-infection; monitored over 7 days. How it is done:
Given the excellent bacteria killing properties and biocompatibility of PIM 1 chloride, the therapeutic efficacy of this polymer was tested in vivo using a mouse septicemia model (FIG. 13). Balb/c female mice (7 weeks with one week quarantine) were used to test the PAO1 septic shock protection efficacy of PIM 1. Exponential phase of PAO1 was collected and washed twice with PBS, and re-suspended in the same volume of PBS. 300 μL of cell suspension containing 3×10^7 CFU of PAO1 was introduced into each mouse via intraperitoneal injection to induce septic shock. […] The survival rate of the mice was monitored over 7 days.

Assay [1] has as its system PAER (carbapenem-resistant Pseudomonas aeruginosa, CRPA). The settings on record: imipenem control, 2 mg/kg, 3 doses.
Method: In another study, mice (5 per group) were treated with varied doses of PIM 1 at 1 h, 4 h and 8 h post-infection with PAO1. Positive and negative control groups of mice were injected with 2 mg/kg of imipenem and same volume of PBS respectively, at the same time point. At the 12th hour, all mice were euthanized with peritoneal washes performed via injecting 3.0 mL of PBS into the intraperitoneal cavity followed by massaging the abdomen for 1 min. After which, approximately 1 mL of peritoneal fluid was recovered to calculating the CFU of bacteria, as well as for immune cells quantification.
For carbapenem-resistant Acinetobacter baumannii (CRAB) and carbapenem-resistant Pseudomonas aeruginosa (CRPA) septicemia protection model, similar procedure was conducted with care and 5% mucin was injected together with the bacteria to have the mice immunocompromised (resulting in similar conditions as hospitalised patients).
Assay [2] has as its system AB-1 (carbapenem-resistant Acinetobacter baumannii, CRAB). The settings on record: imipenem control, 2 mg/kg × 3 doses.
Method: In another study, mice (5 per group) were treated with varied doses of PIM 1 at 1 h, 4 h and 8 h post-infection with PAO1. Positive and negative control groups of mice were injected with 2 mg/kg of imipenem and same volume of PBS respectively, at the same time point. At the 12th hour, all mice were euthanized with peritoneal washes performed via injecting 3.0 mL of PBS into the intraperitoneal cavity followed by massaging the abdomen for 1 min. After which, approximately 1 mL of peritoneal fluid was recovered to calculating the CFU of bacteria, as well as for immune cells quantification. Bacterial loads were also evaluated in the spleen, liver and kidneys of the animals.
For carbapenem-resistant Acinetobacter baumannii (CRAB) and carbapenem-resistant Pseudomonas aeruginosa (CRPA) septicemia protection model, similar procedure was conducted with care and 5% mucin was injected together with the bacteria to have the mice immunocompromised (resulting in similar conditions as hospitalised patients). The amount of bacteria was analysed with one-way classification analysis of variance (ANOVA) and student's t-test (Graphpad Prism for Windows, version 7).
A further assay deals with SA29213. The class given is cell-based, S. aureus. The settings on record: serial passaging at sub-MIC levels, 21 days. Here is the method:
Aliquots of the bacteria at various time points were stored in glycerol and kept at −80° C. for further study whenever resistance development was observed. Ofloxacin was used as the positive control.

The record followed here is patent US11439660B2, “Antimicrobial poly(alkylated imidazolium) salts” (NANYANG TECHNOLOGICAL UNIVERSITY, priority 2017, dated 2022).

As for colistin, in the assay on PAO1, the survival rate was found to be 80%.
Take `C[C@@H](O)[C@H]1C(=O)N2C(C(=O)O)=C(SCCN=CN)C[C@H]12` [imipenem]: the “reduction in the population of CRPA in the intraperitoneal fluid (in words)” value in assay [1] is recorded as “no reduction”. The “removal of AB-1 from the peritoneal fluid (in words)” value in assay [2] is given as “did not show any removal”.
Turning to `CC1COc2c(N3CCN(C)CC3)c(F)cc3c(=O)c(C(=O)O)cn1c23` (stereo not shown) [ofloxacin], the resistance evolution entry in the assay on SA29213 was “above 128 MIC fold change”.
